US8183383B2, “Protein tyrosine phosphatase 1B inhibitor, preparation methods and uses thereof” (Shanghai Institute of Materia Medica, Chinese Academy of …, priority 2007, dated 2012)

Each compound was assayed against T1, hPTP1B (Homo sapiens, UniProt P18031) (assay: PTP1B inhibition test (pNPP hydrolysis, absorption at 410 nm)). Settings: recombinant hPTP1B catalytic domain 40 nM, 2 mM pNPP, pH 7.0, 2% DMSO; read-out: IC50(μM), inhibitory activity of the test compounds against PTP1B.
T1 construct: The catalytic structural domain of hPTP1B was expressed in E-coli system by a molecular biology protocol; made in house; host or cells: E. coli
T1 sequence (P18031 3-277 limits assumed): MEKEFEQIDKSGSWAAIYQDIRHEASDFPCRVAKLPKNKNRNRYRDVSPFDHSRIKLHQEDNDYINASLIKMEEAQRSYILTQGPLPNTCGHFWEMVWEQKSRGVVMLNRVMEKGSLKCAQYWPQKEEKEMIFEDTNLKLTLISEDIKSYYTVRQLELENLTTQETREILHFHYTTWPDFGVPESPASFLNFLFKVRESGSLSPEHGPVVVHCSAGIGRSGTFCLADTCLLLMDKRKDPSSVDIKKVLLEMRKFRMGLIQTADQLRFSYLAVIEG
Assay type: biochemical
Excerpt: 1) Test principle: The catalytic structural domain of hPTP1B was expressed in E-coli system by a molecular biology protocol. The purified hPTP1B recombinant protein can hydrolyze the phosphoester linkage of the pNPP substrate to obtain a product which has a strong light absorption at 410 nm. Therefore, the variation of the enzyme activity and the inhibitory activity of a compound against the enzyme can be observed by directly monitoring the changes in the light absorption at 410 nm. A typical activity assay system is as follows: 50 mM Mops, PH 7.0, 1 mM EDTA, 2 mM DTT, 2 mM PNPP, 2% DMSO, 40 nM hPTP1B.
2) Measuring Index: The light absorption was dynamically measured at 410 nm for 3 min. The slope of the first-order reaction of the dynamic curve thereof was considered as the activity index of the enzymes.
3) Measurement: • 1. 1 mg sample was dissolved in 200 μL DMSO. To each wall of the A2-H11 of a 96-wells polypropylene plate, 20 μL of the solution was added, followed by addition of 80 μL DMSO. The plate was used as mother plate. • 2. To each corresponding wall of a 96-wells polypropylene plate, 2 μL of sample was added with a Biomek 2000 automation workstation. The plate was used as daughter plate for screening. • 3. To each wall of A1-D1 and E12-H12, 2 μL, DMSO was added. These walls were regarded as 100% of enzyme activity for control. • 4. To each wall of A12-D12 and E1-H1, 2 μL positive control with different concentrations (four concentrations prepared by double-fold dilution from […]) was added respectively. • 5. To each wall of A1-H12, 88 μL Assay mix was added respectively. • 6. To each wall of A1-H12, 10 μL hPTP1B was added respectively. • 7. The light absorption was measured at 410 nm for 3 min on a SpectraMAX 340 spectrometer. • 8. Exporting the output into a TXT file, and opening the file with Excel. The average of the Vmax values of A1-D1 and E12-H12 was considered as 100% of enzyme activity.
4) Results: The screening results were the % inhibitory rate against the enzyme when the compound concentration was 20 μg/mL. 1050 value was calculated according to a conventional screening when the inhibitory rate exceeded 50%. The […] value of the positive control, 4-[4-(4-oxalyl-phenoxymethyl)-benzyloxy]-phenyl-oxo-acetic acid, is 5.4 μM [Christopher T. Seto, et al. J. Med. Chem., 2002, 45, 3946-3952].

CCOC(=O)/C(C)=C\C(C)=C\c1csc([C@H](Cc2ccccc2)NC(=O)C2CCCCC2)n1 [WY466h] and CCOC(=O)/C(C)=C\C(C)=C\c1csc([C@H](Cc2ccc(O)cc2)NC(=O)C2CCCCC2)n1 [WY482h] are within 1.5-fold of each other in IC50: 34.2 µM for the first, 27.8 µM for the second.

CCOC(=O)/C(C)=C\C(C)=C\c1csc([C@H](Cc2ccc(OC)cc2)NC(=O)C2CCCCC2)n1 [WY496h] and C=CCOc1ccc(C[C@H](NC(=O)C2CCCCC2)c2nc(/C=C(C)/C=C(/C)C(=O)OCC)cs2)cc1 [WY522h] are within 1.5-fold of each other in IC50: 30.1 µM for the first, 34.4 µM for the second.

First: C=CCc1cc(C[C@H](NC(=O)C2CCCCC2)c2nc(/C=C(C)/C=C(/C)C(=O)OCC)cs2)ccc1O [WY522b]
Second: CCOC(=O)/C(C)=C\C(C)=C\c1csc([C@H](Cc2ccc(O)c(Cc3ccccc3)c2)NC(=O)C2CCCCC2)n1 [WY572t]
The IC50 of the first is higher: over 40 µM for the first, 4.47 µM for the second.

Compared with CCOC(=O)/C(C)=C\C(C)=C\c1csc([C@H](Cc2ccc(OCCO)cc2)NC(=O)C2CCCCC2)n1 [WY526h], CCCCOc1ccc(C[C@H](NC(=O)C2CCCCC2)c2nc(/C=C(C)/C=C(/C)C(=O)OCC)cs2)cc1 [WY538h] is lower in IC50: over 40 µM for the first, 22.1 µM for the second.

CCOC(=O)/C(C)=C\C(C)=C\c1csc([C@H](Cc2ccc(OCc3ccccc3)cc2)NC(=O)C2CC2)n1 [WY530s] and CCOC(=O)/C(C)=C\C(C)=C\c1csc([C@H](Cc2ccc(OCc3ccccc3)cc2)NC(=O)C2CCC2)n1 [WY544s] cannot be ordered by IC50: over 35 µM for the first, over 40 µM for the second.

CCOC(=O)/C(C)=C\C(C)=C\c1csc([C@H](Cc2ccc(OCC(=O)O)cc2)NC(=O)C2CCCCC2)n1 [WY540a] and CCOC(=O)COc1ccc(C[C@H](NC(=O)C2CCCCC2)c2nc(/C=C(C)/C=C(/C)C(=O)OCC)cs2)cc1 [WY568h] cannot be ordered by IC50: over 40 µM for the first, over 40 µM for the second.

Going from CCOC(=O)/C(C)=C\C(C)=C\c1csc([C@H](Cc2ccc(-c3ccccc3)cc2)NC(=O)C2CCCCC2)n1 [WY542h] to CCOC(=O)/C(C)=C/C(C)=C/c1csc([C@H](Cc2ccc(OCc3ccccc3)cc2)NC(=O)C2CCCCC2)n1 [WY572-2], the IC50 falls from over 40 µM to 6.38 µM. The second is the more potent here.

Going from CC(=C\c1csc([C@H](Cc2ccc(OCc3ccccc3)cc2)NC(=O)C2CCCCC2)n1)/C=C(\C)C(=O)O [WY544-2] to C/C(=C/C(C)=C/c1csc([C@H](Cc2ccc(OCc3ccccc3)cc2)NC(=O)C2CCCCC2)n1)C(=O)O [WY544a], the IC50 falls from 11.3 µM to 4.4 µM (2.6-fold).

Compared with CCOC(=O)/C(C)=C\C(C)=C\c1csc([C@H](Cc2ccc(OCc3ccccc3)cc2)NC(=O)C(=O)CO)n1 [WY548], CCOC(=O)/C(C)=C\C(C)=C\c1csc([C@H](Cc2ccc(OCc3ccccc3)cc2)NC(=O)C(=O)COC)n1 [WY562] is lower in IC50: over 35 µM for the first, 10.2 µM for the second.

Going from CCOC(=O)/C(C)=C\C(C)=C\c1csc([C@H](Cc2ccc(OCc3ccccc3)cc2)NC(=O)c2ccco2)n1 [WY556s] to CCOC(=O)/C(C)=C\C(C)=C\c1csc([C@H](Cc2ccc(OCc3ccccc3)cc2)NC(=O)c2ccccc2)n1 [WY566s], the IC50 falls from over 40 µM to 15.2 µM.

CCOC(=O)/C(C)=C\C(C)=C\c1csc([C@H](Cc2ccc(OCc3ccccc3)cc2)NC(=O)C(=O)C2CC2)n1 [WY558] and CCOC(=O)/C(C)=C\C(C)=C\c1csc([C@H](Cc2ccc(OCc3ccccc3)cc2)NC(=O)C(=O)C2CCC2)n1 [WY572] are within 1.5-fold of each other in IC50: 8.14 µM for the first, 8.52 µM for the second.

C/C(=C/C(C)=C/c1csc([C@H](Cc2ccc(OCc3ccccc3)cc2)NC(=O)CC2CCCCC2)n1)C(=O)O [WY558a] and CCOC(=O)/C(C)=C/C(C)=C\c1csc([C@H](Cc2ccc(OCc3ccccc3)cc2)NC(=O)C2CCCCC2)n1 [WY572-3] are within 1.5-fold of each other in IC50: 9.32 µM for the first, 8.69 µM for the second.

Compared with CCOC(=O)/C(C)=C\C(C)=C\c1csc([C@H](Cc2ccc(OCc3ccccc3)cc2)NC(=O)C(F)(F)F)n1 [WY558f], CCOC(=O)/C(C)=C\C(C)=C\c1csc([C@H](Cc2ccc(OCc3ccccc3)cc2)NC(=O)CC(C)(C)C)n1 [WY560t] is lower in IC50: over 35 µM for the first, 20.2 µM for the second. The second is the more potent here.

First: CCOC(=O)/C(C)=C\C(C)=C\c1csc([C@H](Cc2ccc(OCc3ccccc3)cc2)NC(=O)C2CCCC2)n1 [WY558s]
Second: CCOC(=O)/C(C)=C\C(C)=C/c1csc([C@H](Cc2ccc(OCc3ccccc3)cc2)NC(=O)C2CCCCC2)n1 [WY572-4]
The IC50 of the first is 1.6-fold higher: 12.7 µM for the first, 7.9 µM for the second.

Compared with CCOC(=O)/C(C)=C\C(C)=C\c1csc([C@H](Cc2ccc(OCc3ccccc3)cc2)NC(=O)C2CCCO2)n1 (stereo partly shown) [WY560s], CCOC(=O)/C(C)=C\C(C)=C\c1csc([C@H](Cc2ccc(OCc3ccccc3)cc2)NC(=O)C(=O)C2CCCO2)n1 (stereo partly shown) [WY588] is lower in IC50: over 40 µM for the first, 10.4 µM for the second.

Going from CCOC(=O)/C(C)=C\C(C)=C\c1csc([C@H](Cc2ccc(OCc3ccccc3)cc2)NC(=O)COC(C)=O)n1 [WY562s] to CCCCC(=O)C(=O)N[C@@H](Cc1ccc(OCc2ccccc2)cc1)c1nc(/C=C(C)/C=C(/C)C(=O)OCC)cs1 [WY574], the IC50 falls from over 40 µM to 8.58 µM.

Compared with CCOC(=O)/C(C)=C\C(C)=C\c1csc([C@H](Cc2ccc(OCc3ccccc3)cc2)NC(=O)C2CCCCC2)n1 [WY572s], CCOC(=O)/C(C)=C\C(C)=C\c1csc([C@H](Cc2ccc(OCCc3ccccc3)cc2)NC(=O)C2CCCCC2)n1 [WY586h] is higher in IC50: 6.29 µM for the first, over 35 µM for the second.

Compared with CCOC(=O)/C(C)=C\C(C)=C\c1csc([C@H](Cc2ccc(OCc3ccncc3)cc2)NC(=O)C2CCCCC2)n1 [WY573h4], CCOC(=O)/C(C)=C\C(C)=C\c1csc([C@H](Cc2ccc(OCc3ccc(F)cc3)cc2)NC(=O)C2CCCCC2)n1 [WY590h] is lower in IC50: over 40 µM for the first, 25.6 µM for the second.

First: CCOC(=O)/C(C)=C\C(C)=C\c1csc([C@H](Cc2ccc(OCc3ccccn3)cc2)NC(=O)C2CCCCC2)n1 [WY573h]
Second: CCOC(=O)/C(C)=C\C(C)=C\c1csc([C@H](Cc2ccc(OCc3ccccc3F)cc2)NC(=O)C2CCCCC2)n1 [WY592h2]
The IC50 of the first is higher: over 35 µM for the first, 31.8 µM for the second.

First: CCOC(=O)/C(C)=C\C(C)=C\c1csc([C@H](Cc2ccc(OCc3ccsc3)cc2)NC(=O)C2CCCCC2)n1 [WY578h]
Second: CCOC(=O)/C(C)=C\C(C)=C\c1csc([C@H](Cc2ccc(OCc3cccc(F)c3)cc2)NC(=O)C2CCCCC2)n1 [WY590h3]
The IC50 of the first is 2-fold lower: 12 µM for the first, 24.1 µM for the second. The first is the more potent here.

First: CCOC(=O)/C(C)=C\C(C)=C\c1csc([C@H](Cc2ccc(OCc3ccccc3)cc2)NC(=O)Cc2ccccc2)n1 [WY580s]
Second: COC(=O)/C(C)=C\C(C)=C\c1csc([C@H](Cc2ccc(OCc3ccccc3)cc2)NC(=O)C(O)c2ccccc2)n1 (stereo partly shown) [WY584]
The IC50 of the first is lower: 23.1 µM for the first, over 35 µM for the second. The first is the more potent here.

Going from CCOC(=O)/C(C)=C\C(C)=C\c1csc([C@H](Cc2ccc(OC(C)C(=O)OCC)cc2)NC(=O)C2CCCCC2)n1 (stereo partly shown) [WY582h] to CCOC(=O)/C(C)=C\C(C)=C\c1csc([C@H](Cc2ccc(OCc3ccccc3)cc2)NC(=O)C(=O)C2CCCC2)n1 [WY586], the IC50 falls from over 35 µM to 11 µM.

CCOC(=O)/C(C)=C\C(C)=C\c1csc([C@H](Cc2ccc(OCc3ccccc3)cc2)NC(=O)C(=O)c2ccc[nH]2)n1 [WY583] and CCOC(=O)/C(C)=C\C(C)=C\c1csc([C@H](Cc2ccc(OCc3ccccc3)cc2)NC(=O)c2ccc(F)cc2)n1 [WY584s] cannot be ordered by IC50: over 35 µM for the first, over 35 µM for the second.

Going from CCOC(=O)/C(C)=C\C(C)=C\c1csc([C@H](Cc2ccc(OCc3ccccc3)cc2)NC(=O)C2CCCCC2=O)n1 (stereo partly shown) [WY586d] to CCOC(=O)/C(C)=C\C(C)=C\c1csc([C@H](Cc2ccc(OCc3ccccc3)cc2)NC(=O)C2CCN(C)CC2)n1 [WY587s], the IC50 rises from 8.44 µM to over 35 µM. The first is the more potent here.

With CCOC(=O)/C(C)=C\C(C)=C\c1nc([C@H](Cc2ccc(OCc3ccccc3)cc2)NC(=O)C2CCCCC2)sc1C [WY586z] the IC50 was 4.86 µM.
